Six molecules from ChEMBL document CHEMBL5724696, “Autophagy assay results for EUbOPEN Chemogenomics Library” (2024) can be followed below.

Structures are written as SMILES.

For experiment [1], the system named is U2OS. Briefly: (§1) Here: values are normalized to the negative (DMSO; defined as 0% autophagy induction) and positive (250nM Torin1; mTOR inhibitor; defined as maximal inducer of autophagy = 100%) control compounds and represented as % of autophagy induction. […] The impact of autophagy induction on cells is complex and depends on the affected target. As such, the magnitude of a phenotype may not be equally mirrored in the %-value of autophagy induction and vice versa. The dynamics of the induction may indicate the mode of activation: e.g. activation via phosphorylation or a signaling cascade may occur fast, while activation via transcription factors may take considerably longer. […] Of note, treatment concentrations may be sub-optimal for specific compounds, leading to false negative annotations. The experiment is classed as functional, Homo sapiens. The note with it: Culturing Media DMEM, 1 % Penicillin/Streptomycin, 10% Fetal bovin serum Add-On: No, Screening Media Control DMEM, Screening Media Samples DMEM.

Experiment [2] concerns U2OS. The experiment is described as §1. The format is functional, Homo sapiens. The note with it: Culturing Media DMEM, 1 % Penicillin/Streptomycin, 10% Fetal bovin serum Add-On: No, Screening Media Control DMEM, Screening Media Samples DMEM. The source holds these as a separate data set.
The mark [3] stands for this setting: Compound Concentration 0.5 uM, Timepoint 12 hours.
[4] abbreviates: Compound Concentration 0.5 uM, Timepoint 24 hours.
Where [5] appears, read: Compound Concentration 0.5 uM, Timepoint 36 hours.
[6] abbreviates: Compound Concentration 0.5 uM, Timepoint 60 hours.
Where [7] appears, read: Compound Concentration 2 uM, Timepoint 12 hours.
Setting [8] is: Compound Concentration 2 uM, Timepoint 24 hours.
The mark [9] stands for this setting: Compound Concentration 2 uM, Timepoint 36 hours.
The mark [10] stands for this setting: Compound Concentration 2 uM, Timepoint 60 hours.
[11] abbreviates: Compound Concentration 10 uM, Timepoint 12 hours.
Setting [12] is: Compound Concentration 10 uM, Timepoint 24 hours.
Where [13] appears, read: Compound Concentration 10 uM, Timepoint 36 hours.
Setting [14] is: Compound Concentration 10 uM, Timepoint 60 hours.

Turning to `O=C(O)COc1cccc(CN(Cc2ccc(-n3cccn3)cc2)S(=O)(=O)c2cccnc2)c1`, the autophagy induction is reported as 1.733% in the experiment on U2OS [1] (setting [3]); -2.792% in the experiment on U2OS [1] (setting [4]); -2.001% in the experiment with U2OS [1] (setting [5]); 114.184% in the experiment with U2OS [1] (setting [6]); 12.9626% in the experiment with U2OS [1] (setting [7]); 0.7228% in the experiment with U2OS [1] (setting [8]). Further, the autophagy induction with U2OS [1] (setting [9]) is on record as 0.396%; with U2OS [1] (setting [10]), 114.202%; in the experiment with U2OS [1] (setting [11]), 2.661%; with U2OS [1] (setting [12]), -2.358%; in the experiment with U2OS [1] (setting [13]), 0.08453%; in the experiment with U2OS [1] (setting [14]), 114.175%. In addition, the autophagy induction is 5.874% in the experiment on U2OS [2] (setting [3]); 2.74% in the experiment on U2OS [2] (setting [4]); 1.495% in the experiment with U2OS [2] (setting [5]); -1.697% with U2OS [2] (setting [6]); -11.5162% in the experiment on U2OS [2] (setting [7]); -13.8805% in the experiment with U2OS [2] (setting [8]). Also, the autophagy induction in the experiment with U2OS [2] (setting [9]) is reported as -8.014%; in the experiment with U2OS [2] (setting [10]), -12.1859%; in the experiment on U2OS [2] (setting [11]), -5.999%; with U2OS [2] (setting [12]) it was -5.085%; in the experiment on U2OS [2] (setting [13]), -8.443%; with U2OS [2] (setting [14]) it was 1.395%.

With `COc1cc(-n2cnc3cc(-c4ccc(Cl)cc4)sc3c2=O)ccc1OCCN1CCCC1`, the autophagy induction in the experiment with U2OS [1] (setting [3]) is 4.067%; with U2OS [1] (setting [4]) it was -3.025%; in the experiment with U2OS [1] (setting [5]) it was -2.555%; in the experiment on U2OS [1] (setting [6]), 114.356%; in the experiment with U2OS [1] (setting [7]) it was 0.09165%; in the experiment on U2OS [1] (setting [8]) it was 1.732%. Besides, the autophagy induction in the experiment with U2OS [1] (setting [9]) is recorded as 0.6188%; in the experiment with U2OS [1] (setting [10]) it was 114.522%; with U2OS [1] (setting [11]), -26.0106%; in the experiment on U2OS [1] (setting [12]), -13.6231%; with U2OS [1] (setting [13]) it was -7.579%; in the experiment on U2OS [1] (setting [14]), 114.809%. The autophagy induction in the experiment on U2OS [2] (setting [3]) is given as -1.171%; in the experiment with U2OS [2] (setting [4]), 2.823%; with U2OS [2] (setting [5]), 1.029%; in the experiment on U2OS [2] (setting [6]), -2.152%; in the experiment on U2OS [2] (setting [7]), -14.2965%; with U2OS [2] (setting [8]), -7.54%. Further, the autophagy induction with U2OS [2] (setting [9]) is recorded as -8.816%; in the experiment with U2OS [2] (setting [10]), -10.4701%; in the experiment on U2OS [2] (setting [11]) it was 7.721%; in the experiment with U2OS [2] (setting [12]), 15.3334%; with U2OS [2] (setting [13]) it was 18.9257%; in the experiment on U2OS [2] (setting [14]) it was 17.8082%.

Take `N#Cc1ccc(NC(=O)Nc2ccccc2Br)c2nn[nH]c12`: the autophagy induction in the experiment with U2OS [1] (setting [3]) was -0.5776%; in the experiment with U2OS [1] (setting [4]) it was -3.216%; in the experiment on U2OS [1] (setting [5]) it was -2.984%; in the experiment with U2OS [1] (setting [6]), 114.391%; in the experiment with U2OS [1] (setting [7]) it was 0.1454%; in the experiment on U2OS [1] (setting [8]), -3.5634%. Moreover, the autophagy induction in the experiment with U2OS [1] (setting [9]) is given as -1.494%; in the experiment with U2OS [1] (setting [10]), 114.288%; in the experiment with U2OS [1] (setting [11]), -0.261%; with U2OS [1] (setting [12]) it was -3.379%; with U2OS [1] (setting [13]) it was -2.529%; in the experiment with U2OS [1] (setting [14]), 114.424%. In addition, the autophagy induction is listed as 5.86% in the experiment on U2OS [2] (setting [3]); 3.694% in the experiment with U2OS [2] (setting [4]); 2.244% in the experiment on U2OS [2] (setting [5]); 1.525% in the experiment on U2OS [2] (setting [6]); -10.6319% with U2OS [2] (setting [7]); -11.2857% in the experiment with U2OS [2] (setting [8]). The autophagy induction in the experiment on U2OS [2] (setting [9]) is -14.4856%; in the experiment on U2OS [2] (setting [10]) it was -10.0033%; with U2OS [2] (setting [11]), -0.1618%; in the experiment on U2OS [2] (setting [12]), -2.733%; in the experiment with U2OS [2] (setting [13]), -3.711%; in the experiment on U2OS [2] (setting [14]) it was -9.797%.

`CCCCN(CC)c1nc(C)nc2c1c(C)cn2-c1c(C)cc(C)cc1C.Cl`: the autophagy induction in the experiment on U2OS [1] (setting [3]) is 2.677%; with U2OS [1] (setting [4]) it was -1.508%; in the experiment on U2OS [1] (setting [5]) it was -1.584%; with U2OS [1] (setting [6]), 114.355%; in the experiment with U2OS [1] (setting [7]), 3.96%; in the experiment with U2OS [1] (setting [8]), -1.673%. Further, the autophagy induction in the experiment with U2OS [1] (setting [9]) is given as -1.59%; in the experiment on U2OS [1] (setting [10]) it was 114.358%; in the experiment with U2OS [1] (setting [11]) it was -1.788%; in the experiment with U2OS [1] (setting [12]), -2.669%; with U2OS [1] (setting [13]) it was -2.565%; in the experiment on U2OS [1] (setting [14]), 114.561%. Further, the autophagy induction in the experiment with U2OS [2] (setting [3]) is reported as 18.6925%; in the experiment with U2OS [2] (setting [4]), 15.758%; with U2OS [2] (setting [5]), 10.5217%; in the experiment on U2OS [2] (setting [6]), 0.4484%; with U2OS [2] (setting [7]), 10.9121%; in the experiment on U2OS [2] (setting [8]) it was 4.341%. Moreover, the autophagy induction with U2OS [2] (setting [9]) is 5.091%; in the experiment with U2OS [2] (setting [10]), -0.08598%; in the experiment with U2OS [2] (setting [11]), 2.112%; in the experiment on U2OS [2] (setting [12]), -2.1052%; with U2OS [2] (setting [13]) it was 3.327%; with U2OS [2] (setting [14]), 1.7732%.

On to `COc1ccc(/C=C/CCCCOc2ccc(C(=O)c3cccc(C(=O)O)c3)cc2CCC(=O)O)cc1`, for which the autophagy induction in the experiment with U2OS [1] (setting [3]) is -1.627%; in the experiment on U2OS [1] (setting [4]), -2.76%; in the experiment on U2OS [1] (setting [5]), -1.525%; in the experiment with U2OS [1] (setting [6]), 114.261%; in the experiment with U2OS [1] (setting [7]), 2.991%; with U2OS [1] (setting [8]) it was -2.166%. In addition, the autophagy induction in the experiment with U2OS [1] (setting [9]) is on record as -0.5097%; with U2OS [1] (setting [10]) it was 114.413%; with U2OS [1] (setting [11]) it was 6.765%; in the experiment with U2OS [1] (setting [12]), 1.033%; in the experiment with U2OS [1] (setting [13]) it was 1.832%; with U2OS [1] (setting [14]), 114.224%. Also, the autophagy induction in the experiment on U2OS [2] (setting [3]) is listed as 4.029%; in the experiment with U2OS [2] (setting [4]) it was -1.055%; in the experiment with U2OS [2] (setting [5]), -5.293%; in the experiment on U2OS [2] (setting [6]), -4.291%; in the experiment on U2OS [2] (setting [7]), -4.414%; in the experiment on U2OS [2] (setting [8]) it was -2.822%. The autophagy induction is -3.285% with U2OS [2] (setting [9]); 2.49% in the experiment on U2OS [2] (setting [10]); -13.0779% in the experiment on U2OS [2] (setting [11]); -9.945% with U2OS [2] (setting [12]); -0.5172% in the experiment on U2OS [2] (setting [13]); -0.9267% in the experiment on U2OS [2] (setting [14]).

For the molecule `CCCCCNC(=O)NS(=O)(=O)c1cc([N+](=O)[O-])ccc1NC1CCCCC1`, the autophagy induction with U2OS [1] (setting [3]) is -2.4637%; in the experiment on U2OS [1] (setting [4]) it was -2.287%; in the experiment on U2OS [1] (setting [5]), -1.179%; with U2OS [1] (setting [6]), 114.19%; in the experiment with U2OS [1] (setting [7]) it was -2.891%; with U2OS [1] (setting [8]), -2.398%. For the same molecule, the autophagy induction is listed as -2.2883% with U2OS [1] (setting [9]); 114.254% in the experiment on U2OS [1] (setting [10]); -6.232% with U2OS [1] (setting [11]); -4.153% with U2OS [1] (setting [12]); -3.872% in the experiment on U2OS [1] (setting [13]); 114.439% with U2OS [1] (setting [14]). The autophagy induction in the experiment on U2OS [2] (setting [3]) was 1.311%; in the experiment on U2OS [2] (setting [4]), 2.21%; with U2OS [2] (setting [5]), -1.399%; with U2OS [2] (setting [6]), -21.9841%; in the experiment with U2OS [2] (setting [7]) it was 12.2747%; in the experiment with U2OS [2] (setting [8]), 3.055%. The autophagy induction in the experiment with U2OS [2] (setting [9]) is recorded as 0.8075%; with U2OS [2] (setting [10]), -5.198%; in the experiment on U2OS [2] (setting [11]), 0.1217%; with U2OS [2] (setting [12]), -4.73%; in the experiment with U2OS [2] (setting [13]) it was -6.08%; in the experiment on U2OS [2] (setting [14]), -12.7619%.
